Source: US20240158446A1, “CYCLIC COMPOUND HAVING SELECTIVE INHIBITORY ACTION ON KRAS OVER HRAS AND NRAS” (CHUGAI SEIYAKU KABUSHIKI KAISHA, priority 2021, published 2024)

Key:
[1] = molecular target: GDP-bound KRAS wild-type protein (Homo sapiens, UniProt P01116); test: Binding to KRAS by surface plasmon resonance (SPR), Single Cycle Kinetics; conditions: SPR Single Cycle Kinetics, GDP-bound KRAS wild-type protein, 1:1 binding model; read-out: KRAS KD
[2] = molecular target: GDP-bound NRAS wild-type protein (Homo sapiens, UniProt P01111); test: Binding to NRAS by surface plasmon resonance (SPR), Single Cycle Kinetics; conditions: SPR KD ratio NRAS/KRAS, class symbols
[3] = molecular target: GDP-bound HRAS wild-type protein (Homo sapiens, UniProt P01112); test: Binding to HRAS by surface plasmon resonance (SPR), Single Cycle Kinetics; conditions: SPR KD ratio HRAS/KRAS, class symbols
GDP-bound HRAS wild-type protein, sequence (P01112 whole entry): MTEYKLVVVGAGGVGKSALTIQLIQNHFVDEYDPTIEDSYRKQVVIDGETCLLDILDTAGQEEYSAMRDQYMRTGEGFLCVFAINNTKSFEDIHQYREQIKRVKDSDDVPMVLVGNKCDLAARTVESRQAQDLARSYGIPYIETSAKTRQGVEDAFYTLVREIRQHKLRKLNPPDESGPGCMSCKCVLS

GDP-bound KRAS wild-type protein, sequence (P01116 whole entry): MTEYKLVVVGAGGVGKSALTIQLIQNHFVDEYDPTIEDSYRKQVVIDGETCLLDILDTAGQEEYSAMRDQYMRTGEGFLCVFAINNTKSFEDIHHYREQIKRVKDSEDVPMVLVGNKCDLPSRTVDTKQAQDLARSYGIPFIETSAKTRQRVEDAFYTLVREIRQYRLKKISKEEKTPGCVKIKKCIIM
GDP-bound NRAS wild-type protein, sequence (P01111 whole entry): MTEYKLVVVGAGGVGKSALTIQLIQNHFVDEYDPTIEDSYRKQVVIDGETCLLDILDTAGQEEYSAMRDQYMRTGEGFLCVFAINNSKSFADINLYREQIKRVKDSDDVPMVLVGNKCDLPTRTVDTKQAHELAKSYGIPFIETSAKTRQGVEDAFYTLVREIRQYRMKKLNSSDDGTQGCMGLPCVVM

| Structure (SMILES) | Kd [1] [nM] | NRAS/KRAS (ratio of KD value with respect to GDP-bound NRAS wild-type protein to KD value with respect to KRAS) [2] | HRAS/KRAS (ratio of KD value with respect to GDP-bound HRAS wild-type protein to KD value with respect to KRAS) [3] |
| --- | --- | --- | --- |
| CCO[C@@H]1C[C@H]2C(=O)NC3(CCC3)C(=O)N(C)[C@@H](C3CCCC3)C(=O)N(C)[C@H](C(=O)N(C)C)CC(=O)N(C)[C@@H](CC3CCCC3)C(=O)N[C@@H]([C@@H](C)CC)C(=O)N(C)CC(=O)N(C)[C@H]3C/C=C\CCN(C3=O)[C@@H](Cc3ccc(C)cc3)C(=O)N(C)CC(=O)N[C@@H](CCc3ccc(C4CC4)c(C)c3)C(=O)N2C1 [PP2685] | 2.1 | A (a compound having 10 or more and less than 20 is denoted as A) | A (a compound having 10 or more and less than 20 is denoted as A) |
| CCO[C@@H]1C[C@H]2C(=O)NC3(CC(C)(C)C3)C(=O)N(C)[C@@H](CC3CCC3)C(=O)N(C)[C@H](C(=O)N(C)C)CC(=O)N(C)[C@@H](COC)C(=O)N[C@@H]([C@@H](C)CC)C(=O)N(C3CC3)CC(=O)N(C)[C@H]3C/C=C\CCN(C3=O)[C@@H](Cc3ccc(C(F)(F)F)cc3)C(=O)N(C)CC(=O)N[C@@H](CCc3cc(F)c(C(F)(F)F)c(F)c3)C(=O)N2C1 [PP2769] | 2.5 | AA (a compound having 20 or more is denoted as AA) | A (a compound having 10 or more and less than 20 is denoted as A) |
| CCC[C@H]1C(=O)N[C@@H]([C@@H](C)CC)C(=O)N(C2CC2)CC(=O)N(C)[C@H]2C/C=C\CCN(C2=O)[C@@H](Cc2ccc(C(F)(F)F)cc2)C(=O)N(C)CC(=O)N[C@@H](CCc2ccc(C(F)(F)F)c(OC)c2)C(=O)N2C[C@H](OCC)C[C@H]2C(=O)NC2(CC(C)(C)C2)C(=O)N(C)[C@@H](CC2CCC2)C(=O)N(C)[C@H](C(=O)N(C)C)CC(=O)N1C [PP2770] | 5 | A (a compound having 10 or more and less than 20 is denoted as A) | A (a compound having 10 or more and less than 20 is denoted as A) |
| CCO[C@@H]1C[C@H]2C(=O)NC3(CC(C)(C)C3)C(=O)N(C)[C@@H](CC3CCC3)C(=O)N(C)[C@H](C(=O)N(C)C)CC(=O)N(C)[C@@H](COC)C(=O)N[C@@H]([C@@H](C)CC)C(=O)N(C3CC3)CC(=O)N(C)[C@H]3C/C=C\CCN(C3=O)[C@@H](Cc3ccc(C(F)(F)F)cc3)C(=O)N(C)CC(=O)N[C@@H](CCc3ccc(C(F)(F)F)c(OC)c3)C(=O)N2C1 [PP2771] | 2.2 | AA (a compound having 20 or more is denoted as AA) | A (a compound having 10 or more and less than 20 is denoted as A) |
| CCO[C@@H]1C[C@H]2C(=O)NC3(CCC3)C(=O)N(C)[C@@H](CC(C)(C)C)C(=O)N(C)[C@H](C(=O)N3CCCC3)CC(=O)N(C)[C@@H](CC)C(=O)N[C@@H]([C@@H](C)CC)C(=O)N(C)CC(=O)N(C)[C@H]3C/C=C\CCN(C3=O)[C@@H](CC3CCCCC3)C(=O)N(C)CC(=O)N[C@@H](CCc3cc(F)c(C(F)(F)F)c(F)c3)C(=O)N2C1 [PP2772] | 0.43 | B (a compound having 3 or more and less than 10 is denoted as B) | B (a compound having 3 or more and less than 10 is denoted as B) |
| CCO[C@@H]1C[C@H]2C(=O)NC3(CC(C)(C)C3)C(=O)N(C)[C@@H](CC(C)(C)C)C(=O)N(C)[C@H](C(=O)N(C)C)CC(=O)N(C)[C@@H](C(C)C)C(=O)N[C@@H]([C@@H](C)CC)C(=O)N(C)CC(=O)N(C)[C@H]3C/C=C\CCN(C3=O)[C@@H](Cc3ccc(C(F)(F)F)cc3)C(=O)N(C)CC(=O)N[C@@H](CCc3ccc(C(F)(F)F)c(OC)c3)C(=O)N2C1 [PP2773] | 0.52 | B (a compound having 3 or more and less than 10 is denoted as B) | B (a compound having 3 or more and less than 10 is denoted as B) |
| CCC[C@H]1C(=O)N[C@@H]([C@@H](C)CC)C(=O)N(C)CC(=O)N(C)[C@H]2C/C=C\CCN(C2=O)[C@@H](Cc2ccc(C(F)(F)F)cc2)C(=O)N(C)CC(=O)N[C@@H](CCc2ccc(CC)c(Cl)c2)C(=O)N2C[C@H](OCC)C[C@H]2C(=O)NC2(CC(C)(C)C2)C(=O)N(C)[C@@H](C(CC)CC)C(=O)N(C)[C@H](C(=O)N(C)C)CC(=O)N1C [PP2777] | 2.4 | AA (a compound having 20 or more is denoted as AA) | A (a compound having 10 or more and less than 20 is denoted as A) |
| CCC[C@H]1C(=O)N[C@@H]([C@@H](C)CC)C(=O)N(C)CC(=O)N(C)[C@H]2C/C=C\CCN(C2=O)[C@@H](Cc2ccc(C)cc2)C(=O)N(C)CC(=O)N[C@@H](CCc2ccc(CC)c(Cl)c2)C(=O)N2C[C@H](OCC)C[C@H]2C(=O)NC2(CC(C)(C)C2)C(=O)N(C)[C@@H](C2CCCC2)C(=O)N(C)[C@H](C(=O)N(C)C)CC(=O)N1C [PP2778] | 0.62 | A (a compound having 10 or more and less than 20 is denoted as A) | A (a compound having 10 or more and less than 20 is denoted as A) |
| CCC[C@H]1C(=O)N[C@@H]([C@@H](C)CC)C(=O)N(C)CC(=O)N(C)[C@H]2C/C=C\CCN(C2=O)[C@@H](Cc2ccc(C(F)(F)F)cc2)C(=O)N(C)CC(=O)N[C@@H](CCc2cc(F)c(C(F)F)c(F)c2)C(=O)N2C[C@H](OCC)C[C@H]2C(=O)NC2(CC(C)(C)C2)C(=O)N(C)[C@@H](C2CCCC2)C(=O)N(C)[C@H](C(=O)N(C)C)CC(=O)N1C [PP2780] | 0.3 | A (a compound having 10 or more and less than 20 is denoted as A) | A (a compound having 10 or more and less than 20 is denoted as A) |
| CCC[C@H]1C(=O)N[C@@H]([C@@H](C)CC)C(=O)N(C)CC(=O)N(C)[C@H]2C/C=C\CCN(C2=O)[C@@H](Cc2ccc(C(F)(F)F)cc2)C(=O)N(C)CC(=O)N[C@@H](CCc2cc(F)c(C(F)F)c(F)c2)C(=O)N2C[C@H](OCC)C[C@H]2C(=O)NC2(CC(C)(C)C2)C(=O)N(C)[C@@H](C(CC)CC)C(=O)N(C)[C@H](C(=O)N(C)C)CC(=O)N1C [PP2781] | 1.5 | AA (a compound having 20 or more is denoted as AA) | A (a compound having 10 or more and less than 20 is denoted as A) |
| CCC[C@H]1C(=O)N[C@@H]([C@@H](C)CC)C(=O)N(C)CC(=O)N(C)[C@H]2C/C=C\CCN(C2=O)[C@@H](Cc2ccc(C)cc2)C(=O)N(C)CC(=O)N[C@@H](CCc2cc(F)c(C(F)F)c(F)c2)C(=O)N2C[C@H](OCC)C[C@H]2C(=O)NC2(CC(C)(C)C2)C(=O)N(C)[C@@H](C2CCCC2)C(=O)N(C)[C@H](C(=O)N(C)C)CC(=O)N1C [PP2782] | 0.49 | A (a compound having 10 or more and less than 20 is denoted as A) | A (a compound having 10 or more and less than 20 is denoted as A) |
| CCC[C@H]1C(=O)N[C@@H]([C@@H](C)CC)C(=O)N(C)CC(=O)N(C)[C@H]2C/C=C\CCN(C2=O)[C@@H](Cc2ccc(C(F)(F)F)cc2)C(=O)N(C)CC(=O)N[C@@H](CCc2ccc(Cl)c(C(F)(F)F)c2)C(=O)N2C[C@H](OCC)C[C@H]2C(=O)NC2(CC(C)(C)C2)C(=O)N(C)[C@@H](C2CCCC2)C(=O)N(C)[C@H](C(=O)N(C)C)CC(=O)N1C [PP2784] | 0.13 | A (a compound having 10 or more and less than 20 is denoted as A) | A (a compound having 10 or more and less than 20 is denoted as A) |
| CCC[C@H]1C(=O)N[C@@H]([C@@H](C)CC)C(=O)N(C)CC(=O)N(C)[C@H]2C/C=C\CCN(C2=O)[C@@H](Cc2ccc(C(F)(F)F)cc2)C(=O)N(C)CC(=O)N[C@@H](CCc2ccc(Cl)c(C(F)(F)F)c2)C(=O)N2C[C@H](OCC)C[C@H]2C(=O)NC2(CC(C)(C)C2)C(=O)N(C)[C@@H](C(CC)CC)C(=O)N(C)[C@H](C(=O)N(C)C)CC(=O)N1C [PP2785] | 0.26 | AA (a compound having 20 or more is denoted as AA) | A (a compound having 10 or more and less than 20 is denoted as A) |
| CCC[C@H]1C(=O)N[C@@H]([C@@H](C)CC)C(=O)N(C)CC(=O)N(C)[C@H]2C/C=C\CCN(C2=O)[C@@H](Cc2ccc(C)cc2)C(=O)N(C)CC(=O)N[C@@H](CCc2ccc(Cl)c(C(F)(F)F)c2)C(=O)N2C[C@H](OCC)C[C@H]2C(=O)NC2(CC(C)(C)C2)C(=O)N(C)[C@@H](C2CCCC2)C(=O)N(C)[C@H](C(=O)N(C)C)CC(=O)N1C [PP2786] | 0.14 | A (a compound having 10 or more and less than 20 is denoted as A) | A (a compound having 10 or more and less than 20 is denoted as A) |
| CCC[C@H]1C(=O)N[C@@H]([C@@H](C)CC)C(=O)N(C)CC(=O)N(C)[C@H]2C/C=C\CCN(C2=O)[C@@H](Cc2ccc(C)cc2)C(=O)N(C)CC(=O)N[C@@H](CCc2ccc(Cl)c(C(F)(F)F)c2)C(=O)N2C[C@H](OCC)C[C@H]2C(=O)NC2(CC(C)(C)C2)C(=O)N(C)[C@@H](C(CC)CC)C(=O)N(C)[C@H](C(=O)N(C)C)CC(=O)N1C [PP2787] | 0.36 | AA (a compound having 20 or more is denoted as AA) | A (a compound having 10 or more and less than 20 is denoted as A) |
